Data published in patent US20110256121A1, “METHODS AND KITS FOR DIAGNOSING OR MONITORING AUTOIMMUNE AND CHRONIC INFLAMMATORY DISEASES” (THE REGENTS OF THE UNIVERSITY OF MICHIGAN, priority 2008, published 2011).

What was measured:
Type in all cases: cell-based, human
[1] = system: KIR2DL2 and KIR2DL4 promoters; assay: Chromatin immunoprecipitation (ChIP) assays; conditions: 5-azaC treated vs untreated, n=3, p<0.03
Experimental: Chromatin immunoprecipitation (ChIP) assays. Transcription factor binding to KIR2DL2 and KIR2DL4 promoter sequences was determined using mAb to Sp1 (Upstate Biotechnology), Ets1 and AML1 (Abcam) and the ChIP-IT kit with protocols provided by the manufacturer (Active Motif, Carlsbad, Calif.). Briefly, 4.5×10^7 untreated and 5-azaC treated T cells were crosslinked, sonicated, chromatin immunoprecipitated with the relevant mAb, and precipitated DNA amplified by real-time PCR using a Rotor-Gene 3000. Standard curves were determined for each primer set by dilution of the total input 5-azaC treated DNA in a 0.1-100 ng range. The amount of each sequence in the input and precipitated DNA was calculated from the cycle threshold (CT) for each primer set using the standard curves. The primers used were: […]
ChIP assays were then used to compare transcription factor binding to the KIR2DL2 and KIR2DL4 promoters in untreated and 5-azaC treated cells. […] The reason for this is uncertain, but may reflect the structural differences in the KIR2DL2 and KIR2DL4 promoters.

[2] = system: KIR2DL4; assay: KIR2DL4 expression on T cells by flow cytometry; conditions: 5-azaC 72 h, p<0.001 for both
Experimental: (§1) T cell purification and culture. Peripheral blood mononuclear cells (PBMC) were isolated from healthy donors by density gradient centrifugation, stimulated for 18 hours with 1 μg/mlphytohemagglutinin (PHA) (Murex, Norcross, Ga.), then treated or not with 5 μm 5-azacytidine (5-azaC, Sigma, St. Louis, Mo.) for 72 hours as described (6). Total T cells, CD4^+ T cells or CD8′ T cells then were purified using the pan T cell isolation kit II or the CD4^+ and CD8^+ T cell isolation kit II from Miltenyi (Auburn, Calif.). T cells were typically >94% CD3^+ by flow cytometry. Jurkat cells (E6-1) were maintained in culture as described (11). This protocol was approved by the University of Michigan Institutional Review Board.
Flow Cytometric Analysis. The following monoclonal antibodies were used: CYC-anti-CD3, FITC-anti-CD8, CYC-anti-CD4, FITC-anti-CD28, CYC-mouse IgG1 and FITC-mouse-IgG1 (all from BD PharMingen, San Diego, Calif.). Anti-CD158b1/b2, j-PE (GL183, reactive with KIR 2DL2/2DL3/2DS2) was obtained from Beckman Coulter Immunotech (Buckinghamshire, UK), anti-CD158d-PE (anti-KIR2DL4) from R&D Systems (Minneapolis, Minn.), and PE-mouse-IgG2A from Abcam (Cambridge Mass.). Cell staining and fixation were performed as described (2; 6), and cells analyzed using a FACSCalibur flow cytometer (BD Biosciences, Franklin Lakes, N.J.).

[3] = system: KIR2DL2; assay: KIR2DL2 transcripts by real-time quantitative RT-PCR; conditions: relative to β-actin, p<0.001 for both
Experimental: as §1
Real-time quantitative RT-PCR. Total RNA was isolated using the RNeasy Mini Kit (QIAGEN, Valencia, Calif.). Primers were designed to match polymorphic positions unique to KIR2DL2 or KIR2DL4 genes as described by Uhrberg et al. (13). Controls included β-actin primers as described (14). Real-time quantitative RT-PCR was performed with a Rotor-Gene 3000 (Corbett Robotics, San Francisco, Calif.) and QuantiTect SYBR Green RT-PCR kit (QIAGEN) according to manufacturer's instructions. cDNA synthesized from T cells was used to generate standard curves for β-actin, KIR2DL2 and KIR2DL4, and each experiment was repeated at least twice.
Confirmation at the protein and mRNA levels. […]

[4] = system: KIR2DL4; assay: Cell stimulation with immobilized anti-KIR2DL4 and IFN-γ quantitation (Example 15); conditions: without anti-KIR2DL4 crosslinking, p<0.001
Experimental: Cell stimulation and IFN-γ quantitation. Anti-human KIR2DL4 (R&D systems) or isotype matched control (10 μg/ml in PBS) were added to 24 well plates, incubated 6 hours 37° C., then the wells were washed twice with PBS to remove unbound antibody. 2×10^5 T cells were then added to the coated wells in RPMI 1640 supplemented with 10% FBS and cultured for 20 hours. The supernatant was then recovered and IFN-γ levels measured using a human IFN-γ ELISA kit (R&D Systems).
KIR function in 5-azaC treated T cells. It was determined if 5-azaC induced KIR2DL4 stimulates IFN-γ in T cells. PBMC were stimulated with PHA for 18 hours, treated with 5-azaC, then 72 hours later CD4+ and CD8+ cells were isolated, stimulated for 6 hours with immobilized anti-KIR2DL4 or an isotype matched antibody, then IFN-γ was measured in the supernatant by ELISA.

Nc1ncn([C@@H]2O[C@H](CO)[C@@H](O)[C@H]2O)c(=O)n1 [5-azaC, 5-azacytidine]
binding of Sp1, Ets1 and AML1 to both promoters [1]: increases binding of all 3 transcription factors
KIR2DL4 expression on CD4+ and CD8+ T cells [2]: induces KIR2DL4 expression on CD4+ and CD8+ T cells
KIR2DL2 mRNA in CD4+ and CD8+ T cells [3]: increase is significant in both subsets
IFN-γ secretion by 5-azaC treated CD4+ and CD8+ T cells [4]: secrete significant (p<0.001) amounts of IFN-γ
